From patent publication US7405216B2, “Stable crystalline form of bifeprunox mesylate (7-[4-([1,1′-biphenyl]-3-ylmethyl)-1-piperazinyl]-2(3H)-benzoxazolone monomethanesulfonate)” (Solvay Pharmaceuticals, B.V., priority 2004, dated 2008)

Experiment: Stability of the crystalline polymorphic forms of bifeprunox mesylate
Type: physicochemical
Conditions: for thermodynamic stability of the polymorphic form: solid crystalline form, found during further investigations, monomethanesulfonate

thermodynamic stability of the polymorphic form | conversion of the polymorphic form (even at high atmospheric humidity or higher temperature) | SMILES
metastable | – | O=c1[nH]c2cccc(N3CCN(Cc4cccc(-c5ccccc5)c4)CC3)c2o1 [polymorph γ, 7-[4-([1,1′-biphenyl]-3-ylmethyl)-1-piperazinyl]-2(3H)-benzoxazolone monomethanesulfonate]
metastable | – | O=c1[nH]c2cccc(N3CCN(Cc4cccc(-c5ccccc5)c4)CC3)c2o1 [polymorph δ, 7-[4-([1,1′-biphenyl]-3-ylmethyl)-1-piperazinyl]-2(3H)-benzoxazolone monomethanesulfonate]
more thermodynamically stable | does not undergo conversion | O=c1[nH]c2cccc(N3CCN(Cc4cccc(-c5ccccc5)c4)CC3)c2o1 [polymorph α, 7-[4-([1,1′-biphenyl]-3-ylmethyl)-1-piperazinyl]-2(3H)-benzoxazolone monomethanesulfonate]
